{"source": "patent EP2845588A1", "about": "“PIN1 inhibitors for use in the prevention and/or treatment of theileriosis, and related applications” (Centre National de la Recherche Scientifique (CNRS), priority 2013, dated 2015)", "key": {"TaPIN transcripts": {"test_system": "TaPIN transcripts", "assay": "Quantitative PCR of TaPIN transcripts in T.annulata-infected cells", "format": "cell-based", "experimental": "(§1) Total cellular RNAs were extracted using an RNeasy Plus Mini Kit (Qiagen, Hilden, Germany) and parasite RNAs were extracted using the classical Trizol Protocol. cDNA synthesis was performed with the Reverse Transcriptase Superscript III (Invitrogen, CA, USA).\n(§2) Quantitative PCR amplification was performed in the ABI 7500 machine (Applied Biosystems, CA, USA) using the Sybr Green reagent (Applied Biosystems, CA, USA) using the primers listed in Table 5 below. The detection of a single product was verified by dissociation curve analysis. Relative quantities of mRNA were analyzed using the delta Ct method. The βactin qPCR was used for normalization. Table 5: qPCR primers"}, "TaPIN Mutant A53P": {"molecular_target": "T1, TaPIN Mutant A53P (Theileria annulata, UniProt Q4UG71, A53P)", "T1 construct": "expressed in transfected cells; host or cells: TBL3 (T. annulata-infected bovine B cells), electroporated with pRev-HA-FLAG-TaPIN A53P-RIL2", "assay": "CyclinD1-Luciferase reporter assay, TaPIN Mutant A53P in TBL3 cells", "format": "cell-based, T. annulata", "settings": "parasite-infected cells (TBL3)", "source_text": "After sequencing the TaPIN gene expressed in Buparvaquone-resistant infected cells, the Ala53Pro point mutation identified in said gene was introduced into the pRev-HA-FLAG-TaPIN WT-RIL2 plasmid using the set of primers of sequence SEQ ID NO:41 and SEQ ID NO:42 following a 3-step PCR protocol.\n(§3) Bovine cells were transfected with the 5xHRE (Staller et al., 2003) or CyclinD1- (Wulf et al., 2001) Luciferase reporters, using electroporation (Neon kit, Invitrogen, CA, USA). Mouse cells were transfected using Lipofectamine 2000 (Invitrogen, CA, USA). Transfections efficiencies were normalized to Renilla activity by co-transfection of a pRL-TK Renilla reporter plasmid (Promega, Ref.: E6241). Luciferase assays were performed 36h post-transfection using the Dual-Luciferase Reporter Assay System (Promega, Ref: E1980) in a microplate luminometer. Relative luminescence was represented as the ratio Firefly/Renilla luminescence, compared with the corresponding empty vector control. The 5xHRE promoter-Luciferase construct was obtained from P Staller (Biotech Research & Innovation Centre, Copenhagen, […])."}, "[1]": {"test_system": "PKM2, HIF1α, Hexokinase II and PDK1 in TBL3 cells", "assay": "Immunoblot of PKM2, HIF1α, Hexokinase II and PDK1 in TBL3 cells", "format": "cell-based, bovine", "experimental": "Total proteins were extracted with Laemmli lysis, sonicated: 15 secs ON / 30 secs OFF for 5 min, resolved on 10.5% acrylamide/bis-acrylamide SDS-PAGE gels and transferred to nitrocellulose membranes (Thermo Fisher Scientific, MA, USA) in transfer buffer. Protein transfer was assessed by Ponceau-red staining. Membranes were blocked in Tris-buffered saline pH7.4 containing 0.1% Tween-20 and 5% milk for 1 h at room temperature. Incubations with primary antibodies were carried out at 4°C overnight using antibody dilutions as manufacturer recommendations in Trisbuffered saline pH7.4, 0.05% Tween-20 and 5% milk. Following 1 h incubation with an anti-rabbit or anti-mouse peroxidase-conjugated antibody (Sigma, St Louis, MO, USA) at room temperature, proteins were detected by chemiluminescence (Thermo Fisher Scientific, MA, USA) following the manufacturer's instructions. The following antibodies were used: Rabbit anti-TaPIN (Home-made antibody, Proteogenix, Peptide used: […]-Cys), rabbit anti-PIN1 (Cell Signaling, Ref: 3722), rabbit anti-TaActin (kindly provided by Jake Baum, Australia), rabbit anti-c-Jun (Santa Cruz, CA, USA Ref: sc1694), mouse anti-αTubulin (Sigma, Ref: T9026), , rabbit anti-HIF1α (Abcam, Cambridge, UK; Ref: ab75918), rabbit anti-Hexokinase II (Cell Signaling, Ref: C64G5), rabbit anti-PDK1 (Cell signaling, Ref: C47H1), mouse anti-HA (Roche, Ref: 11583816001), rabbit anti-FBW7 (Bethyl Laboratories, Ref: A301-721A), rabbit anti-Histone H3 (Abcam, Ref: ab1791), rabbit anti-PKM2 (Abcam, Ref: ab38237), mouse anti-Actin (Sigma, Ref: A1978) and monoclonal anti-FLAG M2-Peroxidase (Sigma, Ref: A8592). c-Jun, FBW7 or PKM2/Actin ratios were calculated after Western blot signal quantification with the Plot Lanes Analysis tool of Image J software (National Institutes of Health, Bethesda, MD, USA)."}, "TaPIN WT": {"molecular_target": "T2, TaPIN WT (Theileria annulata, UniProt Q4UG71)", "T2 construct": "expressed in transfected cells; host or cells: TBL3 (T. annulata-infected bovine B cells), electroporated with the pREV-HA-FLAG-RIL2 TaPIN plasmid", "assay": "CyclinD1-Luciferase reporter assay, TaPIN WT in TBL3 cells", "format": "cell-based, T. annulata", "settings": "parasite-infected cells (TBL3)", "experimental": "as §3"}, "HepG2 cells": {"test_system": "HepG2 cells", "assay": "Cell viability XTT assay, HepG2", "format": "cell-based, human", "settings": "72h", "experimental": "All infected bovine cell lines used in this study were previously described: TBL3 cells were derived from in vitro infection of the spontaneous bovine-B lymphosarcoma cell line, BL3, with Hissar stock of T.annulata. The TpMD409 lymphocyte cell line are infected with T. parva. The culture conditions of these cell lines were previously described by Moreau et al., 1999. Cells were cultured in RPMI 1640 (Gibco-BRL, Paisley, UK), supplemented with 10% heat-inactivated Fetal calf serum, 4mM L-Glutamine, 25mM HEPES, 10µM β-mercaptoethanol and 100µg/ml penicillin/streptomycin in a humidified 5%CO2 atmosphere at 37°C. HepG2, NIH/3T3 and MEF cells lines were cultured in DMEM (Gibco-BRL, Paisley, UK), supplemented with 10% heat-inactivated Fetal calf serum, 4mM L-Glutamine, 25 mM HEPES, 10µM β-mercaptoethanol and 100µg/ml penicillin/streptomycin in a humidified 5% CO2 atmosphere at 37°C. Cell numbers, as judged by Trypan Blue exclusion test, were determined by counting cells using a Countess automated cell counter (Invitrogen, CA, USA). The anti-parasite drug Buparvaquone (BW720c) was used at 200ng/ml for 72 hours. BW720c has no effect on growth of uninfected cells.\n1×10^4 cells were plated in 96-well plates in triplicate and Buparvaquone, Juglone or PiB was added. […]"}, "host bovine bPIN1": {"test_system": "host bovine bPIN1", "assay": "Quantitative PCR of host bPIN1 transcripts", "format": "cell-based", "experimental": "as §1, §2"}}, "data": [{"compound": "CC(C)(C)C1CCC(CC2=C(O)C(=O)c3ccccc3C2=O)CC1", "note": "(stereo not drawn) [Buparvaquone, 2-((4-tert-butylcyclohexyl)methyl)-3-hydroxy-1,4-naphthoquinone]", "values": [{"measurement": "TaPIN transcripts", "setting": "TaPIN transcripts", "result": "lost"}, {"measurement": "CyclinD1 promoter activation induced by the TaPIN Mutant A53P", "setting": "TaPIN Mutant A53P", "result": "no significant effect"}, {"measurement": "HIF1α protein expression", "setting": "[1]", "result": "reduced"}, {"measurement": "PKM2 protein expression", "setting": "[1]", "result": "reduced"}, {"measurement": "Hexokinase II", "setting": "[1]; HIF1α target gene", "result": "reduced"}, {"measurement": "PDK1", "setting": "[1]; HIF1α target gene", "result": "reduced"}, {"measurement": "CyclinD1 promoter activation by TaPIN WT", "setting": "TaPIN WT", "result": "reversed"}, {"measurement": "viability of HepG2 cells", "setting": "HepG2 cells", "result": "reduce the viability"}, {"measurement": "level of RNA transcripts encoding the host bovine bPIN1 protein", "setting": "host bovine bPIN1", "result": "not affected"}]}]}
